Read-outs that look alike come from different tables or passages of the source.
Tests used:
[1] = test system: CCRF-CEM human lymphoblastic leukemia cells; experiment: In vitro cytotoxicity, XTT assay, 72-hr incubation; assay type: cell-based
Description: (§1) Human colon carcinoma HCT-116 cells, human prostate adenocarcinoma PC-3 and adenocarcinoma SK-OV-3 cells were obtained from American Type Culture Collection (ATCC, Rockville, Md.). Human mammary carcinoma (MX-1) tumor cells were obtained from MSKCC cell bank. The CCRF-CEM human lymphoblastic leukemia cells and their vinblastine resistant subline (CCRF-CEM/VBL, 680-fold resistance in vitro) were obtained from Dr. William Beck of the University of Illinois, Chicago, and CCRF-CEM/Taxol (330-fold resistance in vitro). Resistant cells CCRF-CEM/taxol were produced by exposing the parent cells to increasing sublethal concentration (IC50-IC90) of paclitaxel for six months.
(§2) In preparation for in vitro cytotoxicity assays, cells were cultured at an initial density 2-5×10^4 cells per milliliter. They were maintained in a 5% CO2-humidified atmosphere at 37° C. in RPMI medium 1640 (GIBCO/BRL) containing penicillin (100 units/mL), streptomycin (100 μg/mL, GIBCO/BRL), and 5% heat-inactivated FBS. For cells grown in suspension (such as CCRF-CEM and its sublines), cytotoxicity was measured, by using XTT microculture method in 96-well microtiter plates (Scudiero D A et al., Cancer Res. 1988, 48, 4827-4833). For solid tumor cells growing in a monolayer (such as MX-1 and HCT-116), cytotoxicity of the drug was determined, in duplicate, in 96-well microtiter plates by using the sulforhodamine B method (Skehan P et al., J. Natl. Cancer Inst 1990, 82, 1107-1112). For both methods, the absorbance of each well was measured with a microplate reader (Power Wave XS, Bio-Tek, Winooski, Vt.) after 72-hr incubation as described previously (Chou T-C et al., Proc. Natl. Acad. Sci. USA 2001, 98, 8113-8118). Dose-effect relationship data from 6 to 7 concentrations of each drug, in duplicate, were analyzed by using a computer program (Chou T-C et al., ComboSyn, Inc., Paramus, N J. 2005) based on the median-effect principle and plot (Chou T-C et al., Adv. Enzyme Regul. 1984, 22, 27-55; Chou T-C, Pharmacol. Rev. 2006, 58, 621-681).
(§3) The IC50 is defined by the concentration required to inhibit tumor cell growth by 50%. […] The growth inhibition of the compounds disclosed herein against human lymphoblastic leukemic cells (CCRF-CEM) and its drug-resistant sublines (resistant to vinblastine and taxol, CCRF-CEM/VBL and CCRF-CEM/taxol, respectively) is also shown in Table 5. […] Thus, the compounds disclosed herein are effective against multiple drug resistant tumors.

[2] = test system: CCRF-CEM/VBL; experiment: In vitro cytotoxicity, XTT assay, vinblastine resistant subline; assay type: cell-based, human; conditions: for IC50: XTT assay, 72-hr incubation; for fold of cross-resistant, CCRF-CEM/VBL vs IC50 of the parent cell line: numbers in brackets
Description: as §1, §2, §3

[3] = test system: Human colon carcinoma HCT-116 cells; experiment: In vitro cytotoxicity, sulforhodamine B (SRB) assay; assay type: cell-based
Description: as §1, §2, §3

[4] = test system: Human mammary carcinoma (MX-1) tumor cells; experiment: as above; assay type: cell-based; conditions: 72-hr incubation
Description: as §1, §2, §3

[5] = test system: CCRF-CEM/Taxol; experiment: In vitro cytotoxicity, XTT assay, taxol resistant subline; assay type: cell-based, human; conditions: for IC50: XTT assay, 72-hr incubation; for fold of cross-resistant, CCRF-CEM/Taxol vs IC50 of the parent cell line: numbers in brackets
Description: as §1, §2, §3

[6] = Homo sapiens, HCT-116, 72-hr incubation

Row | Structure (SMILES) | IC50 ([1]; Homo sapiens, CCRF-CEM) [nM] | IC50 ([2]; Homo sapiens, CCRF-CEM) [nM] | fold of cross-resistant, CCRF-CEM/VBL vs IC50 of the parent cell line [2] | IC50 [3, 6] [nM] | IC50 ([4]; Homo sapiens) [nM] | IC50 ([5]; Homo sapiens, CCRF-CEM) [nM] | fold of cross-resistant, CCRF-CEM/Taxol vs IC50 of the parent cell line [5] | IC50 [1] [nM] | IC50 [2] [nM] | IC50 ([3]; 72-hr incubation) [nM] | IC50 [4] [nM] | IC50 [5] [nM]
1 | OCc1c(CO)c(-c2ccc(Cl)cc2)n2c1Cc1ccccc1-2 [DA-1003, (3-(4-Chlorophenyl)-2-hydroxymethyl-8H-3a-aza-cyclopenta[a]inden-1-yl)methanol] | 4270 | 2530 | [0.59x] | 5590 | 6130 | 4220 | [1.00x] |  |  |  |  | 
2 | COc1ccc(-c2c(CO)c(CO)c3n2-c2ccccc2C3)cc1 [DA-1005, (2-Hydroxymethyl-3-(4-methoxyphenyl)-8H-3a-aza-cyclopenta[a]inden-1-yl)methanol] | 1160 | 1670 | [1.4x] | 5830 | 10800 | 1660 | [1.4x] |  |  |  |  | 
3 | OCc1c(CO)c(-c2ccccc2)n2c1Cc1ccccc1-2 [DA-1011, (2-hydroxymethyl-3-phenyl-8H-3a-azacyclopenta[a]inden-1-yl)-methanol] | 252 | 213 | [0.85x] | 1850 | 1350 | 224 | [0.89x] |  |  |  |  | 
4 | CNC(=O)OCc1c(COC(=O)NC)c(-c2ccccc2)n2c1Cc1ccccc1-2 [DA-1022, Methylcarbamic acid 2-methylcarbamoyloxymethyl-3-phenyl-8H-3a-aza-cyclopenta[a] inden-1-ylmethylester] | 357 | 1620 | [4.5x] | 761 | 5920 | 556 | [1.6x] |  |  |  |  | 
5 | OCc1c(CO)c(-c2ccc(F)cc2)n2c1Cc1ccccc1-2 [DA-1024, (3-(4-Flourophenyl)-2-hydroxymethyl-8H-3a-aza-cyclopenta[a]inden-1-yl)methanol] |  |  | [0.96x] |  |  |  | [2.6x] | 4250 | 4070 | 8070 | 22300 | 11000
6 | OCc1c(CO)c(-c2ccc(F)c(F)c2)n2c1Cc1ccccc1-2 [DA-1025, (3-(3,4-Diflourophenyl)-2-hydroxymethyl-8H-3a-aza-cyclopenta[a]inden-1-yl)methanol] |  |  | [1.98x] |  |  |  | [1.6x] | 4910 | 7270 | 10800 | 7000 | 7780
7 | CNC(=O)OCc1c(COC(=O)NC)c(-c2ccc(F)cc2)n2c1Cc1ccccc1-2 [DA-1026, Methylcarbamic acid 3-(4-flourophenyl)-2-methylcarbamoyloxymethyl-8H-3a-aza-cyclopenta[a]inden-1-ylmethyl ester] |  |  | [2.2x] |  |  |  | [2.1x] | 137 | 307 | 397 | 744 | 284
8 | CNC(=O)OCc1c(COC(=O)NC)c(-c2ccc(F)c(F)c2)n2c1Cc1ccccc1-2 [DA-1027, Methylcarbamic acid 3-(3,4-diflourophenyl)-2-methylcarbamoyloxymethyl-8H-3a-aza-cyclopenta[a]inden-1-ylmethyl ester] |  |  | [0.99x] |  |  |  | [1.0x] | 639 | 632 | 878 | 7840 | 644
